Measurements as given in patent publication US7763287B2, “Extract of Cercis chinensis having anti-oxidant activity and anti-aging activity, and cosmetical composition containing the extract for anti-oxidation, skin-aging protection and wrinkle improvement” (Hankook Pharm. Co., Inc., priority 2002, dated 2010).

Assays:
HEK-N/F cells [1] = experiment: Telomere length / maximum PDL (Southern blot of TRFs); format: cell-based, human
Description: In the above Example 8, an extract of […] chinensis and active ingredients separated from the same were confirmed to have an effect of prolongation of life span of a cell. Thus, in this example, relation between the effect of prolongation of life span and the length of a telomere was investigated. Particularly, genomic DNA was extracted from each cell of different ages by using a nucleic acid extraction kit (Isoquick Nucleic Acid Extraction kit, ORCA Research Inc.), which was stored at 4° C. after being dissolved in Tris-EDTA solution (10 mM Tris-HCl, 1 mM EDTA, pH 8.0). 2 μl of 10×H buffer solution (TaKaRa), 2 μl of the extracted genomic DNA solution and distilled water were all mixed in a 1.5 ml tube, making final volume 19 μl. Then, 1 μl at of restriction enzyme […]) was added thereto. […] Then, the gel was immersed in 0.25 N HCl, followed by shaking for 15 minutes. The gel was washed twice with distilled water. This gel was dipped into denaturing solution (0.2 N NaOH, 0.6 M NaCl), followed by shaking for 25 minutes at room temperature. And then, the gel was washed three times with distilled water. On a blotting device filled with 6×SSC, nitrocellulose membrane (Optitran BA-S 85, Schleicher & Schuel), 3 mm filter paper, paper towel, glass plate and weight (2 kg) were loaded in that order, followed by blotting overnight. After the blotting was finished, membrane filter was soaked in 3×SSC, and then water was discarded smoothly. The positions of the wells on the membrane were marked. The membrane was placed between filter papers, followed by baking at 80° C. for overnight. […] After being dried, the membrane was covered with wrap and set in a cassette on which X-ray film (Scientific Imaging Film, Kodak) and intensifying screen were attached. Autoradiography was performed at -80° C. for overnight. Based on the developed film and the location of the membrane, the positions of the wells were marked by a magic pen. The density peak of TRFs was detected by a laser densitometer (UltroScan XL, Pharmacia) and its mobility was calculated.

HEK-N/F cells [2] = experiment: Protection of cells from oxidative damage induced by t-butylhydroperoxide; format: cell-based, human; settings: 1.5 mM t-butylhydroperoxide 3 hours
Description: t-butylhydroperoxide is metabolized into a free radical intermediate as it comes in a cell, so that it causes lipid peroxidation, resulting in cell damage. This phenomenon is similar to that caused by oxidataive stress accumulated in cells and tissues. […] HEK-N/F, an epidermal cell line of a newborn baby, was treated with 1.5 mM of t-butylhydroxyperoxide for 3 hours.

[3] = Nitric oxide scavenging activity; format: biochemical
[4] = Hydroxyl radical scavenging activity (deoxyribose/TBA, method of Halliwell); format: biochemical; settings: 10 μg of sample, total volume 1 ml
Description: Hydroxyl radical (HO.) is generated by the reaction of a metal ion or a superoxide radical. Owing to its strong reactivity, hydroxyl radical causes oxidative damages to DNA, protein and lipid in vivo. Nitric oxide (NO.) is reacted with a superoxide radical to generate a peroxy nitrite (ONOO—), also having strong reactivity. […] Particularly, each compound was mixed with 10 μg of a sample dissolved in DMSO, phosphate buffer (20 mM, pH 7.4) 5.6 mM deoxyribose, 0.1 mM FeCl3, 1 mM H2O2 and 0.1 mM ascorbic acid, making total volume 1 ml, which was then reacted at 37° C. for 60 minutes. 250 μl of 20% TCA and 250 μl of 1% TBA solution (dissolved in 50 mM NaOH) were added to the reaction solution, followed by thermal reaction at 95° C. for 5 minutes. After completing the reaction, OD532 was measured. Hydroxyl radical scavenging activity was calculated by the below
<Mathematical Formula 3>. BHA and α-tocopherol were used for a positive control. Hydroxyl Radical Scavenging Activity (%)=(Acontrol−Asample)/(Acontrol−Ablank)×100 <Mathematical Formula 3>
Acontrol: Optical density of control group well (sample was not added),
Asample: Optical density of experimental group well (sample was added),
Ablank: Optical density of well not added with sample, TCA and TBA

HEK-N/F cells [5] = experiment: Prolongation of life span of a cell; format: cell-based, human; settings: 3 μg/ml during culture
Description: HEK-N/F cells were obtained from foreskin of a newborn baby after its fibroblasts, another major component of skin, were treated with uridine bromide. Then, the cells were cultured in DMEM medium supplemented with 10 FBS. HEK-N/F cells were diluted consecutively at the ratio of 1:4 during the culture. Before being treated with samples, the cells were grown up to 3 PDL (population doubling level). During the culture, each sample was administered by […]. Medium was replaced every three days by fresh medium supplemented with a culture solution containing the equal concentration of the sample.

[6] = Superoxide radical scavenging activity (xanthine/xanthine oxidase, NBT); format: biochemical; settings: Table 6
Description: Superoxide radical (O^2−) itself has a little reactivity, but is easily changed into H2O2 that generates hydroxyl radical having strong reactivity or is reacted with nitric oxide (NO.) to generate peroxy nitrite (ONOO^−) having strong reactivity, too. Thus, it might be a reason for oxidation of SH-group, nitration of protein tyrosine, lipid peroxidation and DNA damage. […] Basically, measurement of superoxide radical scavenging activity was performed by investigating the activity of superoxide dismutase (SOD), an enzyme scavenging superoxide by dismutation of the same. In the present invention, an activity of a sample to inhibit superoxide production by the enzyme reaction of xanthine/xanthine oxidase and its another activity to inhibit reaction (NBT+20^2−→NBTH2+2O2) generating formazan by reduction of nitro blue tetrazolium (referred as ‘NBT’ hereinafter) were measured. Particularly, wells of a 96-well plate were supplemented with 50 μl of 4 mM xanthine (Sigma), 50 μl of […] NBT (Sigma), 50 μl of 50 mM phosphate buffer (pH 7.8, 1 mM EDTA) and 10 μl of each sample, into which 40 μl of xanthine oxidase was added to induce a reaction. After the reaction was completed, each reaction solution was collected as scheduled, and OD550 was measured with an ELISA reader. […] Superoxide Radical Scavenging Activity (%)=(Acontrol−Asample)/(Acontrol−Ablank)×100 <Mathematical Formula 4> […]

rat brain homogenates = experiment: Lipid peroxidation inhibitory activity (Fe2+/ascorbic acid, TBA method); settings: Table 4

For `O=c1c(O)c(-c2cc(O)c(O)c(O)c2)oc2cc(O)cc(O)c12` [Chemical Formula 9, myricetin], the “telomere shortening speed delayed, comparing to control” value (HEK-N/F cells [1]) was 1.6 times, the “maximum PDL” value (HEK-N/F cells [1]; control 14.1) was 23.1 and the “Cell survival rate (%)” value (HEK-N/F cells [2]) was 61.0±4.5%. The “TBARS (pmol/mg protein)” value (HEK-N/F cells [2]; compound 50.0 µg/ml) was 810.7 ± 77.0 pmol/mg protein, the “Nitric oxide scavenging activity (in words)” value [3] was “comparatively high nitric oxide scavenging activity” and the “Hydroxyl radical scavenging activity (%)” value [4] was 8.7%. The “average life span of a cell” value (HEK-N/F cells [5]) was 56 days, the “life span, times as long as that of a control” value (HEK-N/F cells [5]) was 1.6 times and the “Superoxide radical scavenging activity IC50” value [6] was 12.1 ± 1.1 µg/mL. For the same compound, the “Lipid Peroxidation Inhibitory Activity IC50” value (rat brain homogenates) was 0.95 ± 0.06 µg/mL.
